Measurements: paper PMC9962305, “A Highly Expressed Antennae Odorant-Binding Protein Involved in Recognition of Herbivore-Induced Plant Volatiles in Dastarcus helophoroides” (International Journal of Molecular Sciences, 2023)
“Also recorded” adds a separate entry of the source. Where two headings read alike, the source gives them in different places.

Assays:
recombinant DhelOBP18 = recombinant DhelOBP18 (Dastarcus helophoroides, UniProt A0A1I9HZQ8); test: Fluorescence competitive binding assay (1-NPN probe); conditions: DhelOBP18, pH 7.4; for IC50: read-out: IC50, ligand concentration displacing 50% of the fluorescence intensity of the DhelOBPs/1-NPN complex
Description: (§1) Purified proteins were dissolved in 30 mM Tris-HCl buffer (pH 7.4 and 5.0), and emission fluorescence spectra were recorded on an RF-5301PC fluorescence spectrophotometer (Shimadzu, Kyoto, Japan) at room temperature in a right-angle configuration with a 1-cm light path quartz cuvette. To measure the affinity of the fluorescent probe 1-NPN with the target proteins, a […] solution of protein in 30 mM Tris-HCL (pH 7.4 and 5.0) was titrated with aliquots of 1 mM 1-NPN to final concentrations ranging from 0 to the approaching saturation. The probe 1-NPN was excited at 337 nm, and the emission spectra were recorded between 350 and 500 nm. The binding affinities of other ligands were measured using 1-NPN (2 μM) as the fluorescent probe with a stoichiometry of 1:1 (protein: probe), with the final concentration of each ligand ranging from 0 to 20 μM. All ligands, including 1-NPN were purchased from Sigma-Aldrich (St Louis, MO, USA) and TCI Shanghai (Shanghai, China) and dissolved in chromatogram class methanol (Aladdin, Shanghai, China).
(§2) The dissociation constants (Kd) of DhelOBPs with 1-NPN were calculated from Scatchard plots of the binding data using PRISM 8.0 software (GraphPad, La Jolla, CA, USA). Binding affinities (Ki) of DhelOBPs for each ligand were calculated based on the IC50 value (the initial fluorescence level of the competitor concentration reduced by half) using the equation: Ki=IC50/(1+1-NPN/K1-NPN) , where [1-NPN] is the free concentration of 1-NPN, and K1-NPN is the dissociation constant of the complex OBP/1-NPN. The analysis supposes that there is only one protein binding site, which is 100% active, and that the binding is reversible and at an equilibrium.

recombinant DhelOBP4 = recombinant DhelOBP4 (Dastarcus helophoroides, UniProt A0A1I9HZP6); test: as above; conditions: for IC50: read-out: IC50, ligand concentration displacing 50% of the fluorescence intensity of the DhelOBPs/1-NPN complex; for Ki: calculated from IC50, read-out: Ki, dissociation constant
Description: as §1, §2

recombinant DhelOBP14 = recombinant DhelOBP14 (Dastarcus helophoroides, UniProt A0A1I9HZQ7); test: as above; conditions: DhelOBP14, pH 7.4; for IC50: read-out: IC50, ligand concentration displacing 50% of the fluorescence intensity of the DhelOBPs/1-NPN complex
Description: as §1, §2

recombinant DhelOBP5 = recombinant DhelOBP5 (Dastarcus helophoroides, UniProt A0A1I9HZP1); test: as above; conditions: DhelOBP5, pH 7.4; for IC50: read-out: IC50, ligand concentration displacing 50% of the fluorescence intensity of the DhelOBPs/1-NPN complex
Description: as §1, §2

recombinant DhelOBP20 = recombinant DhelOBP20 (Dastarcus helophoroides, UniProt A0A1I9HZP8); test: as above; conditions: DhelOBP20, pH 7.4; for IC50: read-out: IC50, ligand concentration displacing 50% of the fluorescence intensity of the DhelOBPs/1-NPN complex
Description: as §1, §2

[1] = tested on: D. helophoroides adults injected with dsGFP or dsDhelOBP4; test: RNAi-mediated Y-tube olfactometer bioassay; format: in vivo, Dastarcus helophoroides
Description: (§3) Y-tube olfactometer experiments were conducted to evaluate the behavioral response to HIPVs with the best binding affinities in darkness at approximately 25 ± 1 °C. The central tube was 15 cm long, and the two branching arms, each linked to one vial, were 12 cm long with a 75° angle between them. Twenty microliters of each chemical that had been diluted 1000 times by volume were added to a 1 × 1 cm filter paper in one of the vials, and 20 μL of liquid paraffin were dropped on the same size filter paper in the second vial as the blank control. An effective choice was recorded when adults crawled at least 5 cm into the arm within 1 min and stayed 30 s at least. After every five individuals, the two arms were exchanged to avoid position effects. After testing 10 individuals, the Y-tube olfactometer was cleaned with absolute ethanol and oven-dried at 150 °C for 2 h. Fifty adult D. helophoroides were analyzed in each treated group. The results were analyzed using the chi-square test. 50 male and 50 female adults of D. helophoroides were chosen on day 1–4 after eclosion. The two treated groups were: dsGFP-injected and dsRNA-injected. dsGFP (250 ng) or dsRNA (250 ng) was respectively injected into the thorax internode of the adults with a microinjector (World Precision Instruments Inc., Sarasota, FL, USA) under a microscope. The RNAi efficiency was detected using a qRT-PCR for seven consecutive days. Following behavioral response was evaluated using the Y-tube olfactometer.

D. helophoroides adults = test: Y-tube olfactometer bioassay; format: in vivo, Dastarcus helophoroides; conditions: female and male adults, 20 μL of chemical diluted 1000 times vs liquid paraffin, chi-square test
Description: as §3, with “test.” for “test. 50 male and 50 female adults of D. helophoroides were chosen on day 1–4 after eclosion. The two treated groups were: dsGFP-injected and dsRNA-injected. dsGFP (250 ng) or dsRNA (250 ng) was respectively injected into the thorax internode of the adults with a microinjector (World Precision Instruments Inc., Sarasota, FL, USA) under a microscope. The RNAi efficiency was detected using a qRT-PCR for seven consecutive days. Following behavioral response was evaluated using the Y-tube olfactometer.”

recombinant DhelOBP6 = recombinant DhelOBP6 (Dastarcus helophoroides, UniProt A0A1I9HZP3); test: Fluorescence competitive binding assay (1-NPN probe); conditions: DhelOBP6, pH 7.4; Scatchard plot; read-out: dissociation constant (Kd) bound to 1-NPN
Description: as §1, §2

[2] = female adults after injection of dsDhelOBP4
[3] = female and male adults after injection of dsGFP
[4] = male adults after injection of dsDhelOBP4
[5] = Scatchard plot, read-out: dissociation constant (Kd) bound to 1-NPN

Sequence of recombinant DhelOBP18 (A0A1I9HZQ8 entry or part of it): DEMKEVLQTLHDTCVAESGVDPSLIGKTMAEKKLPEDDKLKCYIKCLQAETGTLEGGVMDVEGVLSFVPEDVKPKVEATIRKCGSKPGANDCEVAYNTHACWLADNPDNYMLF
Sequence of recombinant DhelOBP20 (A0A1I9HZP8 entry or part of it): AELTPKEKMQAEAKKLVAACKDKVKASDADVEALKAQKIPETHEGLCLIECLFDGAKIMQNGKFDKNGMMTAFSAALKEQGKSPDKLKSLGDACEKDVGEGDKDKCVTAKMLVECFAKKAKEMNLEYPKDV
Sequence of recombinant DhelOBP5 (A0A1I9HZP1 entry or part of it): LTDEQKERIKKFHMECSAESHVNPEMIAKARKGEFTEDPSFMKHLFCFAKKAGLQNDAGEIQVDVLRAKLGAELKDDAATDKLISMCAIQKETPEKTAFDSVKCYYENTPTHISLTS
Sequence of recombinant DhelOBP14 (A0A1I9HZQ7 entry or part of it): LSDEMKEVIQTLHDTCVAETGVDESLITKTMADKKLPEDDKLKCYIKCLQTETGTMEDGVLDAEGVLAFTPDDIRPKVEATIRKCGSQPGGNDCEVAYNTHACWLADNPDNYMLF
Sequence of recombinant DhelOBP4 (A0A1I9HZP6 entry or part of it): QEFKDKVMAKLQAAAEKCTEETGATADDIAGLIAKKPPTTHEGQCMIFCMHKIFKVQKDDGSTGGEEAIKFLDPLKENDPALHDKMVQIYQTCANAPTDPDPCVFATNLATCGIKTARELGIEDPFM
Sequence of recombinant DhelOBP6 (A0A1I9HZP3 entry or part of it): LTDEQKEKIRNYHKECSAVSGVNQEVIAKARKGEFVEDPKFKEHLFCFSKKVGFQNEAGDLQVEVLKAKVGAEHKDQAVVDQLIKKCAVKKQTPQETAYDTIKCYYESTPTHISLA

Row | Compound | IC50 (recombinant DhelOBP18) | IC50 (recombinant DhelOBP4; DhelOBP4, pH 5.0) | Ki (recombinant DhelOBP4; DhelOBP4, pH 7.4) | IC50 (recombinant DhelOBP4; DhelOBP4, pH 7.4) | IC50 (recombinant DhelOBP14) | IC50 (recombinant DhelOBP5) | IC50 (recombinant DhelOBP20) | Behavioral response of D. helophoroides post-RNAi treatment [1, 2] | Behavioral response of D. helophoroides post-RNAi treatment [1, 3] | Behavioral response of D. helophoroides post-RNAi treatment [1, 4] | Behavioral response of D. helophoroides (D. helophoroides adults) | Behavioral response of D. helophoroides (D. helophoroides adults; listed as γ-terpinene) | Behavioral response of D. helophoroides (D. helophoroides adults; listed as α-terpineol) | Kd (recombinant DhelOBP6) | Kd (recombinant DhelOBP18; [5]) | Kd (recombinant DhelOBP4; DhelOBP4, pH 7.4, Scatchard plot, read-out: dissociation constant (Kd) bound to 1-NPN) | Kd (recombinant DhelOBP14; [5]) | Kd (recombinant DhelOBP5; [5]) | Kd (recombinant DhelOBP20; [5])
1 | CC12CCC(CC1=O)C2(C)C (stereo not shown) [Camphor] | > 50 µM | > 50 µM | 16.6 ± 2.2 µM | 18 ± 2.4 µM | > 50 µM | > 50 µM | > 50 µM |  |  |  |  |  |  |  |  |  |  |  | 
2 | CC1=CCC(C(C)C)=CC1 [γ-Terpinene] | > 50 µM | > 50 µM | 10.1 ± 0.3 µM | 11 ± 0.3 µM | > 50 µM | > 50 µM | > 50 µM | significantly avoidant effects; also recorded: significant repellent response | identically attractive effects | no behavioral effects; also recorded: did not elicit a behavioral response | attractive effects | significantly attracted |  |  |  |  |  |  | 
3 | CC1=CC(=O)[C@H]2C[C@@H]1C2(C)C [(-)-Verbenone] | > 50 µM | > 50 µM |  | > 20 µM | > 50 µM | > 50 µM | > 50 µM |  |  |  |  |  |  |  |  |  |  |  | 
4 | Cc1ccc(C(C)C)cc1 [p-Cymene] | > 50 µM | > 50 µM | 12 ± 0.9 µM | 13 ± 0.9 µM | > 50 µM | > 50 µM | > 50 µM | significantly avoidant effects; also recorded: significant repellent response | identically attractive effects | no behavioral effects; also recorded: did not elicit a behavioral response | significantly attracted; also recorded: attractive effects |  |  |  |  |  |  |  | 
5 | CC1=CC[C@@H](C(C)(C)O)CC1 [α-Terpineol] | > 50 µM | > 50 µM | 9.6 ± 0.1 µM | 10.4 ± 0.1 µM | > 50 µM | > 50 µM | > 50 µM |  |  |  | no behavioral effects |  | did not elicit a behavioral response |  |  |  |  |  | 
6 | c1ccc(Nc2cccc3ccccc23)cc1 [1-NPN, N-phenyl-1-naphthylamine, reference compound] |  |  |  |  |  |  |  |  |  |  |  |  |  | 120 µM | 1.23 µM | 22.4 µM | 17.4 µM | 41 µM | 5.13 µM
7 | CC1=CCC(O)(C(C)C)CC1 (stereo not shown) [Terpinen-4-ol] | > 50 µM | > 50 µM |  | > 20 µM | > 50 µM | > 50 µM | > 50 µM |  |  |  |  |  |  |  |  |  |  |  | 
8 | CC1=CCC(=C(C)C)CC1 [Terpinolene] | > 50 µM | > 50 µM | 14.5 ± 1.7 µM | 15.7 ± 1.8 µM | > 50 µM | > 50 µM | > 50 µM |  |  |  |  |  |  |  |  |  |  |  | 
9 | CC12CCC(C1)C(C)(C)C2=O (stereo not shown) [Fenchone] | > 50 µM | > 20 µM |  | > 20 µM | > 50 µM | > 50 µM | > 50 µM |  |  |  |  |  |  |  |  |  |  |  | 
